Measurements as given in article PMC7617456, “Cryptosporidium lysyl-tRNA synthetase inhibitors define the interplay between solubility and permeability required to achieve efficacy” (Science translational medicine, 2024).

Key:
P-gp (MDR1) = assay: in vitro; settings: dog, MDCK-MDR1
PAMPA permeability = format: in vitro ADME; settings: for Papp at 5 h, 10 µM: PAMPA, pH 7.4, pH 7.4
Method: Solubility test samples were prepared by adding 5 μL stock to PBS pH 7.4 (195 μL). […] […] vacuum […] (Millipore Multiscreen HTS fi lter, 96-well format) to remove any undissolved material. The […] analyzed for dissolved drug compound using a truncated UHPLC methodology. A calibration solution was prepared for each test compound. […] Aliquots of the test sample […] (0.4 and 5.0 μL) were injected onto the UHPLC system and the resultant test compound peak areas quantifi ed […] PAMPA per meability As previously described.(28) The permeability assay was performed using a 96-well precoated BD Gentest PAMPA plate (BD Biosciences). Each well was divided into two chambers: donor and acceptor, separated by a lipid-oil-lipid trilayer constructed in a porous fi lter. […] Stock solutions (5 mM) of the compound were prepared in DMSO. […] The compound dissolved in phosphate buffered saline was added to the donor side of the membrane, and phosphate-buffered saline without the compound was added to the acceptor side. The PAMPA plate was left at room temperature for 5 h then an aliquot (100 μL) was removed from both acceptor and donor compartments and mixed with acetonitrile (80 μL) containing an internal standard: donepezil at 50 ng/mL. The samples were centrifuged (10 min, 5 °C, 3270×g) to sediment lipids and sealed prior to UPLC-MS/MS analysis using a Quattro Premier XE (Waters Corp, USA). Recovery of the compound from donor and acceptor wells was calculated, and data were only accepted when recovery exceeded 70%.

Mouse pharmacokinetics = settings: for AUC / Vd / half-life / Cmax / Tmax / bioavailability: female, BALB/C, whole blood; for AUC / Vd / half-life / Cmax / Tmax / bioavailability / Clb: mouse; for CLB: mouse IV 3 mg/kg, clearance in blood; for Clb: percent of liver blood flow; for mean free (unbound) drug concentration relative to EC90: uninfected mice, 10 mg/kg oral single dose
Method: Uninfected mice were administered a single oral (10 mg/kg) dose of either DDD489 or DDD508 using the same formulation and dose concentration as for the efficacy study. Blood samples were collected at various time points after drug administration (15, 30, 60, 120, 180, 240, and 480 minutes) and analyzed to produce a concentration-time plot of unbound drug concentration (Fig. 3). […]
Mouse pharmacokinetics (Dundee)
As previously described.(27)
Test compound was dosed as a bolus solution intravenously (IV) at 3mg/kg (dose volume: 5 mL/kg; dose vehicle: 10% DMSO; 40% PEG 400; 50% Milli-Q water) or dosed orally (PO) by gavage as a suspension at 10mg/kg (dose volume: 10 mL/kg; dose vehicle: 1% CMC to female BALB/C mice (n = 3/dose route). Blood samples were taken from each mouse at 5, 15, 30 min, 1, 2, 4, 6, 8 h mixed with nine volumes of Milli-Q water and stored frozen until UPLC/MS/MS analysis. Pharmacokinetic parameters were derived from the blood concentration-time curve using PK solutions software v2.0 (Summit Research Services, USA).

CYP450 2C19 = CYP450 2C19 (Homo sapiens, UniProt P33261); assay: CYP450 inhibition 2C19; format: in vitro ADME
CYP450 2C19, sequence (P33261 whole entry): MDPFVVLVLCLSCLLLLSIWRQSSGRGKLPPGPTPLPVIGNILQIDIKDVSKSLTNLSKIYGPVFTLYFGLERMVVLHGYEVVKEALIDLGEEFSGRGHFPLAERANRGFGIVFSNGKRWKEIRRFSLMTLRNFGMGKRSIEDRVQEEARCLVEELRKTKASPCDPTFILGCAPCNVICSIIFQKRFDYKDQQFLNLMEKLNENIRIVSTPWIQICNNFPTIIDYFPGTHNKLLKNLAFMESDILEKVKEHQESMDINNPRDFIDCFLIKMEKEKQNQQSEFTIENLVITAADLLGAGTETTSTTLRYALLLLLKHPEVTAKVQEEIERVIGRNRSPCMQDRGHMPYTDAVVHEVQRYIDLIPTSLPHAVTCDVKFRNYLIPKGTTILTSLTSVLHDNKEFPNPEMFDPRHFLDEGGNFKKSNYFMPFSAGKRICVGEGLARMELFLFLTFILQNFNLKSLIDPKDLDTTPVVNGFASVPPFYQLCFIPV
Method: (§1) CYP450 inhibition (Dundee)
(§2) As previously described.(31)
(§3) DDD489 and DDD508 were evaluated for their ability to induce reverse mutations both in the presence and absence of S9 mix at the histidine locus in the genome of four strains of Salmonella typhimurium (TA98, TA100, TA1535, and TA97a) and at the tryptophan locus in the genome of Escherichia coli WP2 uvrA in a mini-Ames study conducted at WuXi App Tec […]
(§4) hERG inhibition (WuXi App Tec)
(§5) DDD489 and DDD508 were evaluated for their effects on cloned hERG potassium channels stably expressed in Chinese Hamster Ovary (CHO) cells using manual patch-clamp technique in a hERG inhibition assay conducted at WuXi App Tec (Suzhou).
(§6) Mitochondrial toxicity (Cyprotex)
(§7) DDD489 and DDD508 were evaluated for their effects on mitochondrial function in a functional mitochondrial toxicity assay using Seahorse XFe96 flux analyser conducted at […]
(§8) 44 screen safety panel (Eurofins)
(§9) DDD489 was evaluated for off-target effects in a SafetyScreen44 panel at Eurofins Cerep.
(§10) All regulated procedures, at the University of Dundee, on living animals were carried out under the authority of a project license issued by the Home Office under the Animals (Scientific Procedures) Act 1986, as amended in 2012 (and in compliance with EU Directive EU/2010/63). […]

[1] = system: transgenic C. parvum that express NanoLuciferase; assay: IFN-Gamma KO mouse acute efficacy model; format: in vivo; settings: DDD489, DDD508 50 mg/kg BID; DDD706 20 mg/kg QD; oral 7 days from day 6 PI
Method: First, compounds were tested in the acute cryptosporidiosis mouse model, IFN-Gamma KO.([16]) In this model, infection peaks at approximately 10-12 days PI, and resolves within a month. Mice were infected with a strain of transgenic C. parvum that expresses NanoLuciferase (NLuc).([12]) Mice were treated orally for 7 days starting on day 6 PI (Fig. 4A) and a NanoLuciferase assay was used to determine parasite shedding in feces (RLUs/g). Control mice received either vehicle (Fig. 4B, white) or positive control, DDD706 (Fig. 4B, black; NLuc parasites are genetically engineered to be resistant to paromomycin, so DDD706 serves as the positive control) at 20 mg/kg QD; DDD489 and DDD508 were tested at 50 mg/kg BID.
Male IFN-Gamma knockout mice (B6.129S7-Ifng^tmlTS/J, JAX 002287; purchased from Jackson Labs and bred at the University of Dundee) aged 30 weeks old were used, (n = 5 mice per experimental group). Mice were infected by oral gavage (100 oocysts of Δtk::mNeon-Neo^R as described previously([12])). Compounds were prepared in HMPC without DMSO and administered by oral gavage at 50 mg/kg starting day 6 PI. Early lead compound DDD706 served as the positive control (administered at 20 mg/kg QD). Fecal samples were pooled from all mice in the cage on days indicated. Oocyst shedding in feces was determined by NanoLuciferase assay (20 mg of fecal material was homogenized in 1 ml of lysis buffer and assayed for NLuc activity as previously described).([12])

CYP450 3A4 = CYP450 3A4 (Homo sapiens, UniProt P08684); assay: CYP450 inhibition 3A4; format: in vitro ADME
CYP450 3A4, sequence (P08684 whole entry): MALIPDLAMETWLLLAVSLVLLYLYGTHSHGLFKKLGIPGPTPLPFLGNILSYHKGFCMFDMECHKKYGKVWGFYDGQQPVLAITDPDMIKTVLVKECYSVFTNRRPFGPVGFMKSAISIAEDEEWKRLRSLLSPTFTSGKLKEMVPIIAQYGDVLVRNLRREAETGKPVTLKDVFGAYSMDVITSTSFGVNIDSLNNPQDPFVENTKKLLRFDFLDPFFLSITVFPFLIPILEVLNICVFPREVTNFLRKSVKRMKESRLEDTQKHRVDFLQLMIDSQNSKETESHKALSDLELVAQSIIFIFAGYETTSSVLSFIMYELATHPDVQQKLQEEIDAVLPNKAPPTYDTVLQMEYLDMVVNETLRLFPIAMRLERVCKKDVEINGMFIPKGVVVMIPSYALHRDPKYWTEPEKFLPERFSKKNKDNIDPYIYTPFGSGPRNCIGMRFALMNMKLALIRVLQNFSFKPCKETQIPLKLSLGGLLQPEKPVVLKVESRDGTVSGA
Method: as §1, §2, §3, §4, §5, §6, §7, §8, §9, §10

Work on Nc1nc2c(c(C(F)(F)F)n1)C(=O)N(CC1CCCC(C(F)(F)F)C1)C2 (stereo not drawn) [DDD489] yielded an efflux ratio (P-gp (MDR1)) of 1.3, a Papp at 5 h, 10 µM (PAMPA permeability) of 17.1 ×10⁻⁶ cm/s and an AUC (Mouse pharmacokinetics; iv, 3 mg/kg) of 2280 ng·h/mL. It also gave a Vd (Mouse pharmacokinetics; iv, 3 mg/kg) of 2.8 L/kg, a half-life (Mouse pharmacokinetics; iv, 3 mg/kg) of 90 min and an AUC (Mouse pharmacokinetics; po, 10 mg/kg) of 517 ng·h/mL. For the same compound, the Cmax (Mouse pharmacokinetics; po, 10 mg/kg) was 200 ng/mL, the Tmax (Mouse pharmacokinetics; po, 10 mg/kg) was 60 min and the bioavailability (Mouse pharmacokinetics; po, 10 mg/kg) was 7%. The CLB (Mouse pharmacokinetics) was 22 mL/min/kg, the Clb (Mouse pharmacokinetics) was 17 % LBF and the “mean free (unbound) drug concentration relative to EC90” value (Mouse pharmacokinetics) was “remained below the EC90”. The IC50 (CYP450 2C19) was > 100 µM, the “parasite shedding during treatment period” value [1] was “reduced parasite shedding below the LOQ” and the recrudescence [1] was “able to prevent parasite recrudescence”. The IC50 (CYP450 3A4) was > 100 µM.
For O=C(NCC1(O)CCCCC1)c1cc(=O)c2cc(O)ccc2o1 [DDD508], the efflux ratio (P-gp (MDR1)) was 9.5, the Papp at 5 h, 10 µM (PAMPA permeability) was 0.69 ×10⁻⁶ cm/s and the “PAMPA Papp” value (PAMPA permeability; pH 7.4) was 0.7 ×10⁻⁶ cm/s. For the same compound, the AUC (Mouse pharmacokinetics; iv, 3 mg/kg) was 1480 ng·h/mL, the Vd (Mouse pharmacokinetics; iv, 3 mg/kg) was 1.8 L/kg and the half-life (Mouse pharmacokinetics; iv, 3 mg/kg) was 36 min. It also gave an AUC (Mouse pharmacokinetics; po, 10 mg/kg) of 267 ng·h/mL, a Cmax (Mouse pharmacokinetics; po, 10 mg/kg) of 200 ng/mL and a Tmax (Mouse pharmacokinetics; po, 10 mg/kg) of 15 min. The bioavailability (Mouse pharmacokinetics; po, 10 mg/kg) was 6%, the CLB (Mouse pharmacokinetics) was 34 mL/min/kg and the Clb (Mouse pharmacokinetics) was 27 % LBF. For the same compound, the “mean free (unbound) drug concentration relative to EC90” value (Mouse pharmacokinetics) was “remained below the EC90”, the IC50 (CYP450 2C19) was > 100 µM and the “parasite shedding during treatment period” value [1] was “reduced parasite shedding below the limit of quantitation (LOQ)”. The recrudescence [1] was “unable to prevent recrudescence” and the IC50 (CYP450 3A4) was > 100 µM.
